Source: US10947242B2, “[1,2,4]triazolo[1,5and#8208;A]pyrimidine compounds as PDE2 inhibitors” (Janssen Pharmaceutica NV, priority 2016, dated 2021)
Read-outs that look alike come from different tables or passages of the source.

How the values were obtained:
PDE2A = target: T1, PDE2A (Rattus norvegicus, UniProt Q01062); assay: PDE2 occupancy by test compounds, ex-vivo autoradiography with [3H]B-17a; assay type: in vivo, Male Wistar rats; conditions: for receptor occupancy at 10 mg/kg: percentage receptor occupancy, ex-vivo autoradiography, striatum; for ED50: drug dose producing 50% receptor occupancy, read-out: PDE Occupancy ED50
T1 construct: Twenty μm-thick striatal sections were cut; from tissue; host or cells: rat brain, striatal sections
T1 sequence (Q01062 1-928): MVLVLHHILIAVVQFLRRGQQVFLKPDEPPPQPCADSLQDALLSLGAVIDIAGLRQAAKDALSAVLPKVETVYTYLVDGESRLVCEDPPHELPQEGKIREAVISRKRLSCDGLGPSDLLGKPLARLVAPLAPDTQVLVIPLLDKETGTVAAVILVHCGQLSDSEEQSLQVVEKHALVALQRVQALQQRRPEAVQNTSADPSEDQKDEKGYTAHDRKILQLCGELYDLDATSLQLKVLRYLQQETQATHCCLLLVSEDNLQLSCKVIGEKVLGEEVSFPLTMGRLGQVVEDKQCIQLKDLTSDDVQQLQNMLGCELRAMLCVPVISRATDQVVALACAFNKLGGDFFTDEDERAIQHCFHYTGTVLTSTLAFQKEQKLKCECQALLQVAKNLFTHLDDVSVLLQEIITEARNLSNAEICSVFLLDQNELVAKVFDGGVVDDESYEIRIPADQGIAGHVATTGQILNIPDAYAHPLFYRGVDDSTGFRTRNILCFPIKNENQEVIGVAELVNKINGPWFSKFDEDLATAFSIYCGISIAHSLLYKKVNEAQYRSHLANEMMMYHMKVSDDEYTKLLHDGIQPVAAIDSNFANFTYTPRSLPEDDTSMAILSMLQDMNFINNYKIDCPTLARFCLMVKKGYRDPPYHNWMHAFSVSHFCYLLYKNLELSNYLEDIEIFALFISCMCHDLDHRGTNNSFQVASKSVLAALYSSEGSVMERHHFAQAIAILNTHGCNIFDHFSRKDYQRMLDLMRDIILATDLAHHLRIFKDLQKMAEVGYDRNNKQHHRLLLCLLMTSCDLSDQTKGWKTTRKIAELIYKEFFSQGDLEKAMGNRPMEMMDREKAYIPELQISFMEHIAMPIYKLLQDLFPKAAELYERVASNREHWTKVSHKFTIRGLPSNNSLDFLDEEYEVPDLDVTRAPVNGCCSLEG

[1] = target: T2, Human recombinant PDE10A (hPDE10A) (Homo sapiens, UniProt Q9Y233); assay: In vitro assay PDE10A, human clone (SPA, 3H-cAMP hydrolysis); assay type: biochemical
T2 construct: His tag (inferred from metal chelate purification); made in house; host or cells: Sf9 insect cells (baculovirus)
Procedure, shortened: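 Hydrolysis of 3H-cAMP (60 nM cAMP, 0.008 μCi tracer) proceeded for 60 min at room temperature, with the product detected by SPA bead scintillation counting. The enzyme was hPDE10A from baculovirus-infected Sf9 cells in Tris pH 7.8 buffer with MgCl2 and EGTA, and compounds were at 1% DMSO final. Blanks lacked enzyme.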

[2] = target: T3, Human recombinant PDE3A (hPDE3A) (Homo sapiens, UniProt Q14432); assay: In vitro assay PDE3A (SPA, 3H-cAMP hydrolysis); assay type: biochemical; conditions: for IC50: hPDE3B pIC50, read-out: pIC50 (converted); for Emax: read-out: hPDE3B Emax, read-out: Emax;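 for all read-outs here: the method names PDE3A and the table heading PDE3B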
T3 construct: purchased Scottish Biomedical; host or cells: Sf9 insect cells
Procedure, shortened: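 Radiometric SPA measuring [3H]-cAMP hydrolysis (0.4 μM cAMP, 2.4 μCi/ml) over 60 min at room temperature, in Tris pH 7.8 buffer with MgCl2 and EGTA, 1% DMSO. Enzyme: recombinant human brain PDE3A expressed in Sf9 cells, used as partially purified lysate. Counts compared with enzyme-free blanks and vehicle controls.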

[3] = target: T4, Human recombinant PDE2A (hPDE2A) (Homo sapiens, UniProt O00408); assay: In vitro assay PDE2A (SPA, 3H-cGMP hydrolysis); assay type: biochemical; conditions: for Emax: read-out: hPDE2A Emax; for IC50: read-out: hPDE2A pIC50 (converted)
T4 construct: His tag (inferred from metal chelate purification); made in house; host or cells: Sf9 insect cells (baculovirus)

[4] = human clone (h), default, read-out: hPDE10A2 Emax
[5] = human clone (h), default, read-out: hPDE10A2 pIC50 (converted)
[6] = human clone by default (no (r) mark), read-out: hPDE10A2 or rPDE10A2 Emax
[7] = human clone by default (no (r) mark), read-out: hPDE10A2 or rPDE10A2 pIC50 (converted)

T4 sequence (O00408 whole entry): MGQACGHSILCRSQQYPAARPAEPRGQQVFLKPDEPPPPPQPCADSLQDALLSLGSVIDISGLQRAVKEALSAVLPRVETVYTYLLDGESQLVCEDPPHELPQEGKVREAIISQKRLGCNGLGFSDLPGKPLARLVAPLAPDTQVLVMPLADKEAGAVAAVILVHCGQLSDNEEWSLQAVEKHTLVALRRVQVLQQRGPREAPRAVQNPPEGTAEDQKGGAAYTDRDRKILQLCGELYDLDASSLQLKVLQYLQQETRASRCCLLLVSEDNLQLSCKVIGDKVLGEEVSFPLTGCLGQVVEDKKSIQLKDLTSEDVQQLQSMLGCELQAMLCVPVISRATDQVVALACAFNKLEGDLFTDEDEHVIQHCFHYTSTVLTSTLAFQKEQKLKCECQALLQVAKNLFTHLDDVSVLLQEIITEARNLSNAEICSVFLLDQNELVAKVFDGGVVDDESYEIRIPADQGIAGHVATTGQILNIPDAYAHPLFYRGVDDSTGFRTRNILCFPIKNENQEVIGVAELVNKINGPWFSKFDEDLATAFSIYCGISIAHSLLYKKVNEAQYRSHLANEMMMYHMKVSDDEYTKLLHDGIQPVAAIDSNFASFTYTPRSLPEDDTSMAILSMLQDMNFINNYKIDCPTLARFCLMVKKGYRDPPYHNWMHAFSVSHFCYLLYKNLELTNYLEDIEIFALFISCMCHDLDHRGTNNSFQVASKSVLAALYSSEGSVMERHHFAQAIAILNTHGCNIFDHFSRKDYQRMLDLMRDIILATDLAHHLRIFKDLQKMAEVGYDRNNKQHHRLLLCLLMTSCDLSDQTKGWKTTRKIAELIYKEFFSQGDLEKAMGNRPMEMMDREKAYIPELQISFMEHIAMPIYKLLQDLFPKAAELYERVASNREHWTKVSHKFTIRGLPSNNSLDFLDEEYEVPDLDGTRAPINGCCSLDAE
T3 sequence (Q14432 whole entry): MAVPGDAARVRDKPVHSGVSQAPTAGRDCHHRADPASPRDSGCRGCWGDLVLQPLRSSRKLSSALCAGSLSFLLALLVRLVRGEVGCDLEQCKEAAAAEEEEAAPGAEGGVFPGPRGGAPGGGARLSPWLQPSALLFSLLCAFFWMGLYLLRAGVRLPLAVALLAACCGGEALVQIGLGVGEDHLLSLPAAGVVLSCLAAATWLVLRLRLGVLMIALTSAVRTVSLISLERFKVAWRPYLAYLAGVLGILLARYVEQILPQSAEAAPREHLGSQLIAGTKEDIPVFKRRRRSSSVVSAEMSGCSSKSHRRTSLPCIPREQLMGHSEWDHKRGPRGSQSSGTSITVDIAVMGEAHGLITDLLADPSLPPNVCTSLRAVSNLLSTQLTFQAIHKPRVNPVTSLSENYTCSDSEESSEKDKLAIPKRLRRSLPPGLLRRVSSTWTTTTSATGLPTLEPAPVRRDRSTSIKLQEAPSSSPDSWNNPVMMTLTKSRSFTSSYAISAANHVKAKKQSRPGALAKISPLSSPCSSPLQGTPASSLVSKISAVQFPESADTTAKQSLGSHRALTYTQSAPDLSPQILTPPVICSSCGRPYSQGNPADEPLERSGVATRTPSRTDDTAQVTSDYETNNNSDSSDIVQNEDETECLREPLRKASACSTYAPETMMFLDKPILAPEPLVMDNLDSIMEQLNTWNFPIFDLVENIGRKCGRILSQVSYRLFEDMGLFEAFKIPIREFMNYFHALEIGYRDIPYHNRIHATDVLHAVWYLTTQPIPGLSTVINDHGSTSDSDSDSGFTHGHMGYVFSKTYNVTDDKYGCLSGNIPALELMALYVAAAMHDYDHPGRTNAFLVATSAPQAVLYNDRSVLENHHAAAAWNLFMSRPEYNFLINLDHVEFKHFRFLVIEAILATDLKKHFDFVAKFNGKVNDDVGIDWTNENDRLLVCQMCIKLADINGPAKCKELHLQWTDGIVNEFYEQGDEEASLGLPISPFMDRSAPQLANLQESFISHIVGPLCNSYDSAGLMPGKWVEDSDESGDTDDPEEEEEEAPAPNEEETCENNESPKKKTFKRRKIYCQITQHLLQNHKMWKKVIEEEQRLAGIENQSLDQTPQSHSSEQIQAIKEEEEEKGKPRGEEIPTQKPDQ
T2 sequence (Q9Y233 267-1055): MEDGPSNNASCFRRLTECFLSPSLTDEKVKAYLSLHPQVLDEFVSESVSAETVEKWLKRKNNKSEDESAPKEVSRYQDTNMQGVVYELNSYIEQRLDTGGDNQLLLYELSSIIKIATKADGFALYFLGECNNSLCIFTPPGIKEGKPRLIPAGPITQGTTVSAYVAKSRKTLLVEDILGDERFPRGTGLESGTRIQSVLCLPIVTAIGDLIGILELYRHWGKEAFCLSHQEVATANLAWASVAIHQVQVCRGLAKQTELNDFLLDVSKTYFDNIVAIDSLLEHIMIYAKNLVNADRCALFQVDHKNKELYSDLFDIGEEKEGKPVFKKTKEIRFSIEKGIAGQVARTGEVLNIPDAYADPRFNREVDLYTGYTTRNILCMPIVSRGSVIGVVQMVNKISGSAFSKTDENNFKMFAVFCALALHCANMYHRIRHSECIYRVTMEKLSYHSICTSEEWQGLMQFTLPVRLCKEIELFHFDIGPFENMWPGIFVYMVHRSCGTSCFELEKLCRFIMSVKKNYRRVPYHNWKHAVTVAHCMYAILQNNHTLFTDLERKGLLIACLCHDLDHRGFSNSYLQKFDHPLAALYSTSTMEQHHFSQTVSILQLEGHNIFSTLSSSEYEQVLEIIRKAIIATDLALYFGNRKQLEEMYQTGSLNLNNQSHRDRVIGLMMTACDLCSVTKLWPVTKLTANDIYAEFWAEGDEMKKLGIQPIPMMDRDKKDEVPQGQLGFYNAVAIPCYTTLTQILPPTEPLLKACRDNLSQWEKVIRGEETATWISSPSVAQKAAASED

| Structure (SMILES) | receptor occupancy at 10 mg/kg (PDE2A; po, route PO (oral)) | ED50 (PDE2A; route PO (oral)) | Emax [1, 4] | IC50 [1, 5] | Emax [1, 6] | IC50 [1, 7] | IC50 [2] | Emax [2] | Emax [3] | IC50 [3] | receptor occupancy at 10 mg/kg (PDE2A; route SC (subcutaneous)) | receptor occupancy at 10 mg/kg (PDE2A; route PO (oral)) |
| --- | --- | --- | --- | --- | --- | --- | --- | --- | --- | --- | --- | --- |
| COc1cccc2c1OCC(C(=O)N1CC[C@@H](C)[C@H](c3cc(C(F)F)nc4ncnn34)C1)=C2 [Compound 267] | 59% | 11 mg/kg | 99% | 0.0112 µM | 99% | 0.0112 µM | 0.0617 µM | 100% | 102% | 0.000398 µM | – | – |
| C[C@@H]1CCN(C(=O)c2cc(C3CC3)ncc2F)C[C@H]1c1cc(C(F)F)nc2ncnn12 [Compound 269] | 22% | 24.2 mg/kg | 93% | 0.692 µM | 93% | 0.692 µM | 3.72 µM | 78% | 101% | 0.000708 µM | – | – |
| COc1ncc(C)cc1C(=O)N1CC[C@@H](C)[C@H](c2cc(C(F)F)nc3ncnn23)C1 [Compound 272] | 3% | – | 93% | 0.794 µM | 93% | 0.794 µM | 8.91 µM | 54% | 102% | 0.00219 µM | – | – |
| Cc1c(C(=O)N2[C@H]3CC[C@H](c4cc(C(F)F)nc5ncnn45)[C@@H]2CC3)oc2ccccc12 [Compound 273] | – | – | 96% | 0.977 µM | 96% | 0.977 µM | 0.813 µM | 96% | 100% | 0.00234 µM | 65% | – |
| Cc1cc(C(=O)N2CC[C@@H](C)[C@H](c3cc(C)nc4ncnn34)C2)cc(OC(F)F)n1 [Compound 275] | 23% | – | – | – | 100% | 0.0288 µM | 0.977 µM | 92% | 100% | 0.00282 µM | – | – |
| C[C@@H]1CCN(C(=O)c2cc(C3CC3)ncc2F)C[C@@]1(F)c1cc(C(F)F)nc2ncnn12 [Compound 277] | -4% | – | – | – | 27% | > 10 µM | > 10 µM | 14% | 99% | 0.0759 µM | – | – |
| Cc1cc(C(=O)N2CC[C@@H](C)[C@H](c3cc(C(F)F)nc4ncnn34)C2)c(F)c(C2CC2)n1 [Compound 278] | 30% | – | – | – | 99% | 0.145 µM | 0.708 µM | 97% | 99% | 0.000933 µM | – | – |
| Cc1cc([C@@H]2CN(C(=O)c3cc(C4CC4)ncc3C(F)(F)F)CC[C@H]2C)n2ncnc2n1 [Compound 283] | -12% | – | – | – | 98% | 0.178 µM | > 10 µM | 38% | 100% | 0.00851 µM | – | – |
| COc1cc(C(=O)N2CC[C@@H](C)[C@H](c3cc(C(F)F)nc4ncnn34)C2)cc(OC)n1 [Compound 284] | 16% | – | – | – | 98% | 0.055 µM | 1.26 µM | 89% | 101% | 0.0017 µM | – | – |
| Cc1cc(C(=O)N2[C@H]3CC[C@H](c4cc(C(F)F)nc5ncnn45)[C@@H]2CC3)cc(C(F)(F)F)n1 [Compound 286] | – | – | – | – | 79% | 2.24 µM | > 10 µM | 14% | 101% | 0.00692 µM | – | 5% |
| COc1cc(C(=O)N2[C@H]3CC[C@H](c4cc(C(F)F)nc5ncnn45)[C@@H]2CC3)cc(C)n1 [Compound 290] | – | – | – | – | 89% | 1.41 µM | 6.92 µM | 53% | 98% | 0.00589 µM | – | -3% |
| O=C(c1ccc2cccn2c1)N1[C@H]2CC[C@H](c3cc(C(F)F)nc4ncnn34)[C@@H]1CC2 [Compound 291] | – | – | – | – | 95% | 0.513 µM | 2.63 µM | 86% | 101% | 0.00269 µM | – | 38% |
| COc1c(C)cc(C(=O)N2[C@H]3CC[C@H](c4cc(C(F)F)nc5ncnn45)[C@@H]2CC3)cc1C [Compound 292] | – | – | – | – | 94% | 0.724 µM | 4.68 µM | 73% | 100% | 0.00251 µM | – | 23% |
| Cc1cc(C(=O)N2[C@H]3CC[C@H](c4cc(C(F)F)nc5ncnn45)[C@@H]2CC3)cc(OC(F)F)n1 [Compound 293] | – | – | – | – | 90% | 1.02 µM | 3.47 µM | 80% | 100% | 0.0112 µM | – | 6% |
| Cc1cc(C(=O)N2[C@H]3CC[C@H](c4cc(C(F)F)nc5ncnn45)[C@@H]2CC3)cc(C(F)F)n1 [Compound 294] | – | – | – | – | 81% | 2.09 µM | > 10 µM | 14% | 99% | 0.0107 µM | – | 17% |
| COc1cccc2c1OCC(C(=O)N1[C@H]3CC[C@H](c4cc(C(F)F)nc5ncnn45)[C@@H]1CC3)=C2 [Compound 296] | – | – | – | – | 100% | 0.12 µM | 0.794 µM | 93% | 99% | 0.000457 µM | – | 88% |
| Cn1cc(C(=O)N2[C@H]3CC[C@H](c4cc(C(F)F)nc5ncnn45)[C@@H]2CC3)c2ccccc21 [Compound 297] | – | – | – | – | 96% | 0.589 µM | 5.89 µM | 62% | 97% | 0.00234 µM | – | -2% |
| Cc1cc(C(=O)N2[C@H]3CC[C@H](c4cc(C(F)F)nc5ncnn45)[C@@H]2CC3)cc(C)c1C#N [Compound 299] | – | – | – | – | 84% | 2.14 µM | > 10 µM | 40% | 99% | 0.00776 µM | – | 31% |
| Cn1c(C(=O)N2[C@H]3CC[C@H](c4cc(C(F)F)nc5ncnn45)[C@@H]2CC3)cc2ccccc21 [Compound 300] | – | – | – | – | 80% | 2.88 µM | 2 µM | 88% | 100% | 0.00646 µM | – | -11% |
| COc1cc(C(=O)N2[C@H]3CC[C@H](c4cc(C(F)F)nc5ncnn45)[C@@H]2CC3)cc(OC)n1 [Compound 301] | – | – | – | – | 89% | 1.26 µM | 6.31 µM | 62% | 100% | 0.00813 µM | – | -7% |
| Cc1cc(C)cc(C(=O)N2[C@H]3CC[C@H](c4cc(C(F)F)nc5ncnn45)[C@@H]2CC3)c1 [Compound 302] | – | – | – | – | 93% | 0.891 µM | 7.94 µM | 59% | 101% | 0.00646 µM | – | 1% |
| Cc1nc2ccc(C(=O)N3[C@H]4CC[C@H](c5cc(C(F)F)nc6ncnn56)[C@@H]3CC4)cc2o1 [Compound 303] | – | – | – | – | 95% | 0.537 µM | 6.61 µM | 57% | 99% | 0.00708 µM | – | 17% |
